Numbers after ± are expanded uncertainties.
Assay: molar enthalpy of vaporization or sublimation
Settings: 298 K; Crystal; Static calorimetry

| molar enthalpy [kcal/mol] | Compound |
| --- | --- |
| 48.92 ± 0.263 | CCCCN(CCCC)C(=S)NC(=O)c1cccs1 [N-((dibutylamino)thioxomethyl)-2-thiophenecarboxamide] |
| 48.57 ± 0.263 | CC(C)CN(CC(C)C)C(=S)NC(=O)c1cccs1 |

Source: the NIST ThermoML archive (doi:10.1016/j.jct.2007.11.008)
